Reference: patent US10597388B2, “Pyridazinone herbicides” (FMC CORPORATION, priority 2014, dated 2020)

Columns and labels:
Experiment in all cases: Test C greenhouse herbicide test, pre- and postemergence
Type in all cases: in vivo
[1] = tested on: barnyardgrass (Echinochloa crus-galli)
Outline: (§1)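 Two application timings: at sowing into a soil/sand blend, and on 2–18 cm seedlings in peat-vermiculite potting mix. A non-phytotoxic, surfactant-containing solvent carried the compounds. Plants were compared with controls and rated visually on 0–100 after 13–15 d.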

[2] = tested on: blackgrass (Alopecurus myosuroides)
Outline: as §1

[3] = tested on: corn (Zea mays)
Outline: as §1

[4] = tested on: foxtail, giant (giant foxtail, Setaria faberii); details: for Plant response rating, Foxtail, Giant: Postemergence; for Foxtail, Giant plant response rating: postemergence, 62 g ai/ha
Outline: as §1

[5] = tested on: galium (catchweed bedstraw, Galium aparine); details: for Plant response rating, Galium: Postemergence; for Galium plant response rating: postemergence, 62 g ai/ha
Outline: as §1

[6] = tested on: johnsongrass (Sorghum halepense); details: for Plant response rating, Johnsongrass: Postemergence; for Johnsongrass plant response rating: postemergence, 62 g ai/ha
Outline: as §1

[7] = tested on: lambsquarters (Chenopodium album); details: for Plant response rating, Lambsquarters: Postemergence; for Lambsquarters plant response rating: postemergence, 62 g ai/ha
Outline: as §1

[8] = tested on: morningglory (Ipomoea coccinea); details: for Plant response rating, Morningglory: Postemergence; for Morningglory plant response rating: postemergence, 62 g ai/ha
Outline: as §1

[9] = tested on: nutsedge, yellow (yellow nutsedge, Cyperus esculentus); details: for Plant response rating, Nutsedge, Yellow: Postemergence; for Nutsedge, Yellow plant response rating: postemergence, 62 g ai/ha
Outline: as §1

[10] = tested on: pigweed (Amaranthus retroflexus); details: for Plant response rating, Pigweed: Postemergence; for Pigweed plant response rating: postemergence, 62 g ai/ha
Outline: as §1

[11] = tested on: ragweed (common ragweed, Ambrosia elatior); details: for Plant response rating, Ragweed: Postemergence; for Ragweed plant response rating: postemergence, 62 g ai/ha
Outline: as §1

[12] = tested on: ryegrass, Italian (Italian ryegrass, Lolium multiflorum); details: for Plant response rating, Ryegrass, Italian: Postemergence; for Ryegrass, Italian plant response rating: postemergence, 62 g ai/ha
Outline: as §1

[13] = tested on: soybean (Glycine max); details: for Plant response rating, Soybean: Postemergence; for Soybean plant response rating: postemergence, 62 g ai/ha
Outline: as §1

[14] = tested on: velvetleaf (Abutilon theophrasti); details: for Plant response rating, Velvetleaf: Postemergence; for Velvetleaf plant response rating: postemergence, 62 g ai/ha
Outline: as §1

[15] = tested on: waterhemp (common waterhemp, Amaranthus rudis); details: for Plant response rating, Waterhemp: Postemergence; for Waterhemp plant response rating: postemergence, 62 g ai/ha
Outline: as §1

[16] = tested on: wheat (winter wheat, Triticum aestivum); details: for Plant response rating, Wheat: Postemergence; for Wheat plant response rating: postemergence, 62 g ai/ha
Outline: as §1

[17] = Postemergence, 31 g ai/ha, 0 to 100 scale (0 no effect, 100 complete control)
[18] = Postemergence, 125 g ai/ha, scale 0 to 100, 0 is no effect, 100 is complete control
[19] = Postemergence, 250 g ai/ha, scale 0 to 100, 0 no effect, 100 complete control, 13 to 15 d
[20] = postemergence, 62 g ai/ha, scale 0 to 100, 0 no effect, 100 complete control
[21] = 125 g ai/ha, scale 0 to 100, 0 is no effect, 100 is complete control
[22] = 250 g ai/ha, scale 0 to 100, 0 no effect, 100 complete control, 13 to 15 d
[23] = scale 0 to 100, 0 no effect, 100 complete control

In the case of `CC(=O)Oc1c(C#N)nn(C)c(=O)c1-c1c(C)ccc2ccccc12` [Compound 98], the “Barnyardgrass plant response rating” value [1, 17] is reported as 60, the “Plant response rating, Barnyardgrass” value [1, 18] is reported as 98 and the “Plant response rating, Barnyardgrass” value [1, 19] is reported as 98. The “Barnyardgrass plant response rating” value [1, 20] was 85, the “Blackgrass plant response rating” value [2, 17] was 5 and the “Plant response rating, Blackgrass” value [2, 18] was 50. For the same compound, the “Plant response rating, Blackgrass” value [2, 19] was 70, the “Blackgrass plant response rating” value [2, 20] was 30 and the “Corn plant response rating” value [3, 17] was 5. For the same compound, the “Plant response rating, Corn” value [3, 18] was 15, the “Plant response rating, Corn” value [3, 19] was 15 and the “Corn plant response rating” value [3, 20] was 0. The “Plant response rating, Foxtail, Giant” value [4, 21] was 98, the “Plant response rating, Foxtail, Giant” value [4, 22] was 100 and the “Foxtail, Giant plant response rating” value [4, 23] was 95. The “Plant response rating, Galium” value [5, 21] was 98, the “Plant response rating, Galium” value [5, 22] was 98 and the “Galium plant response rating” value [5, 23] was 95. For the same compound, the “Plant response rating, Johnsongrass” value [6, 21] was 10, the “Plant response rating, Johnsongrass” value [6, 22] was 10 and the “Johnsongrass plant response rating” value [6, 23] was 5. The “Plant response rating, Lambsquarters” value [7, 21] was 100, the “Plant response rating, Lambsquarters” value [7, 22] was 100 and the “Lambsquarters plant response rating” value [7, 23] was 100. For the same compound, the “Plant response rating, Morningglory” value [8, 21] was 100, the “Plant response rating, Morningglory” value [8, 22] was 100 and the “Morningglory plant response rating” value [8, 23] was 100. The “Plant response rating, Nutsedge, Yellow” value [9, 21] was 50, the “Plant response rating, Nutsedge, Yellow” value [9, 22] was 60 and the “Nutsedge, Yellow plant response rating” value [9, 23] was 15. The “Plant response rating, Pigweed” value [10, 21] was 100, the “Plant response rating, Pigweed” value [10, 22] was 100 and the “Pigweed plant response rating” value [10, 23] was 100. The “Plant response rating, Ragweed” value [11, 21] was 98, the “Plant response rating, Ragweed” value [11, 22] was 100 and the “Ragweed plant response rating” value [11, 23] was 98. The “Plant response rating, Ryegrass, Italian” value [12, 21] was 65, the “Plant response rating, Ryegrass, Italian” value [12, 22] was 85 and the “Ryegrass, Italian plant response rating” value [12, 23] was 45. The “Plant response rating, Soybean” value [13, 21] was 25, the “Plant response rating, Soybean” value [13, 22] was 25 and the “Soybean plant response rating” value [13, 23] was 10. For the same compound, the “Plant response rating, Velvetleaf” value [14, 21] was 75, the “Plant response rating, Velvetleaf” value [14, 22] was 100 and the “Velvetleaf plant response rating” value [14, 23] was 70. For the same compound, the “Plant response rating, Waterhemp” value [15, 21] was 100, the “Plant response rating, Waterhemp” value [15, 22] was 100 and the “Waterhemp plant response rating” value [15, 23] was 100. For the same compound, the “Plant response rating, Wheat” value [16, 21] was 15, the “Plant response rating, Wheat” value [16, 22] was 30 and the “Wheat plant response rating” value [16, 23] was 10.
In the case of `COc1nn(C)c(=O)c(-c2c(C)sc3ccc(Cl)cc23)c1O` [Compound 100], the “Barnyardgrass plant response rating” value [1, 17] is reported as 10, the “Plant response rating, Barnyardgrass” value [1, 18] is reported as 30 and the “Plant response rating, Barnyardgrass” value [1, 19] is reported as 40. The “Barnyardgrass plant response rating” value [1, 20] was 25, the “Blackgrass plant response rating” value [2, 17] was 5 and the “Plant response rating, Blackgrass” value [2, 18] was 5. For the same compound, the “Plant response rating, Blackgrass” value [2, 19] was 25, the “Blackgrass plant response rating” value [2, 20] was 5 and the “Corn plant response rating” value [3, 17] was 5. The “Plant response rating, Corn” value [3, 18] was 5, the “Plant response rating, Corn” value [3, 19] was 10 and the “Corn plant response rating” value [3, 20] was 10. The “Plant response rating, Foxtail, Giant” value [4, 21] was 75, the “Plant response rating, Foxtail, Giant” value [4, 22] was 90 and the “Foxtail, Giant plant response rating” value [4, 23] was 45. The “Plant response rating, Galium” value [5, 21] was 95, the “Plant response rating, Galium” value [5, 22] was 95 and the “Galium plant response rating” value [5, 23] was 95. The “Plant response rating, Johnsongrass” value [6, 21] was 5, the “Plant response rating, Johnsongrass” value [6, 22] was 10 and the “Johnsongrass plant response rating” value [6, 23] was 0. The “Plant response rating, Lambsquarters” value [7, 21] was 98, the “Plant response rating, Lambsquarters” value [7, 22] was 98 and the “Lambsquarters plant response rating” value [7, 23] was 90. The “Plant response rating, Morningglory” value [8, 21] was 100, the “Plant response rating, Morningglory” value [8, 22] was 100 and the “Morningglory plant response rating” value [8, 23] was 100. For the same compound, the “Plant response rating, Nutsedge, Yellow” value [9, 21] was 20, the “Plant response rating, Nutsedge, Yellow” value [9, 22] was 50 and the “Nutsedge, Yellow plant response rating” value [9, 23] was 25. For the same compound, the “Plant response rating, Pigweed” value [10, 21] was 100, the “Plant response rating, Pigweed” value [10, 22] was 100 and the “Pigweed plant response rating” value [10, 23] was 85. For the same compound, the “Plant response rating, Ragweed” value [11, 21] was 95, the “Plant response rating, Ragweed” value [11, 22] was 98 and the “Ragweed plant response rating” value [11, 23] was 95. For the same compound, the “Plant response rating, Ryegrass, Italian” value [12, 21] was 90, the “Plant response rating, Ryegrass, Italian” value [12, 22] was 95 and the “Ryegrass, Italian plant response rating” value [12, 23] was 90. The “Plant response rating, Soybean” value [13, 21] was 5, the “Plant response rating, Soybean” value [13, 22] was 5 and the “Soybean plant response rating” value [13, 23] was 5. The “Plant response rating, Velvetleaf” value [14, 21] was 40, the “Plant response rating, Velvetleaf” value [14, 22] was 65 and the “Velvetleaf plant response rating” value [14, 23] was 50. For the same compound, the “Plant response rating, Waterhemp” value [15, 21] was 95, the “Plant response rating, Waterhemp” value [15, 22] was 98 and the “Waterhemp plant response rating” value [15, 23] was 90. The “Plant response rating, Wheat” value [16, 21] was 0, the “Plant response rating, Wheat” value [16, 22] was 5 and the “Wheat plant response rating” value [16, 23] was 0.
